What all share (assay type): biochemical
The target in one test is T1, human Tyro3 (Homo sapiens, UniProt Q06418).
T1 construct: GST (N); made in house; host or cells: Sf9 insect cells (baculovirus)
T1 sequence (Q06418 455-890 limits assumed): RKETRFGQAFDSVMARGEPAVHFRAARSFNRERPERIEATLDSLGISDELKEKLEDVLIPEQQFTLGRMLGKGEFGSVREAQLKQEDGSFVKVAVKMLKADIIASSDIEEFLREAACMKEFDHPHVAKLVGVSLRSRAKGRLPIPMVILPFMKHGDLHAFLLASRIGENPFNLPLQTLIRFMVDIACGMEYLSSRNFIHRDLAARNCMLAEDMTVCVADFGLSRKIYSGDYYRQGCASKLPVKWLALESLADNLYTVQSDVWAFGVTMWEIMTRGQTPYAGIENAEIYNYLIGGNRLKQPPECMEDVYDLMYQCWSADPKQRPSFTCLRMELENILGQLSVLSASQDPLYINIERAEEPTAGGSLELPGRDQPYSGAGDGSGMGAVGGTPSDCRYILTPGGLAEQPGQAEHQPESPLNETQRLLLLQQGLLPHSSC
The test can be described thus: Kinase enzymatic activity assay (33P-radiolabeled phosphate transfer), Tyro3. The following applies: recombinant human Tyro3 (455-end), poly(4:1 glu:tyr) substrate, 30 minutes. The procedure, abridged: (§1)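 GST-tagged human Tyro3 (455-end), Axl (473-end) and Mer (578-872) from Sf9 cells, with poly(Glu:Tyr) 4:1 substrate, in MOPS pH 7.2 buffer with MgCl2. [33P]-ATP added from a 250 µM cocktail; reaction 30 min at room temperature, filter-captured counts, duplicates. IC50 derived from % inhibition over a compound serial dilution.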

A further test has as its target T2, human Mer (Homo sapiens, UniProt Q12866).
T2 construct: GST (N); made in house; host or cells: Sf9 insect cells (baculovirus)
T2 sequence (Q12866 578-872): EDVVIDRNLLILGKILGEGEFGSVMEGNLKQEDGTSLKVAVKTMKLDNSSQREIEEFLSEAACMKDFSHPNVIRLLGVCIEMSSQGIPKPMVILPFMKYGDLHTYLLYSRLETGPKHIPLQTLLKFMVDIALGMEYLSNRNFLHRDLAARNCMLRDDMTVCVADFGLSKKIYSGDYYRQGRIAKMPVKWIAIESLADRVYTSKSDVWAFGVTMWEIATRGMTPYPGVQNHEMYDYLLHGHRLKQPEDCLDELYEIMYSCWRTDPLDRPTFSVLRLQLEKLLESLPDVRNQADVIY
The test can be described thus: Kinase enzymatic activity assay (33P-radiolabeled phosphate transfer), Mer. The following applies: recombinant human Mer (578-872), poly(4:1 glu:tyr) substrate, 30 minutes. In outline:
as §1

The target of a further test is T3, human Axl (Homo sapiens, UniProt P30530).
T3 construct: GST (N); made in house; host or cells: Sf9 insect cells (baculovirus)
T3 sequence (P30530 473-894 limits assumed): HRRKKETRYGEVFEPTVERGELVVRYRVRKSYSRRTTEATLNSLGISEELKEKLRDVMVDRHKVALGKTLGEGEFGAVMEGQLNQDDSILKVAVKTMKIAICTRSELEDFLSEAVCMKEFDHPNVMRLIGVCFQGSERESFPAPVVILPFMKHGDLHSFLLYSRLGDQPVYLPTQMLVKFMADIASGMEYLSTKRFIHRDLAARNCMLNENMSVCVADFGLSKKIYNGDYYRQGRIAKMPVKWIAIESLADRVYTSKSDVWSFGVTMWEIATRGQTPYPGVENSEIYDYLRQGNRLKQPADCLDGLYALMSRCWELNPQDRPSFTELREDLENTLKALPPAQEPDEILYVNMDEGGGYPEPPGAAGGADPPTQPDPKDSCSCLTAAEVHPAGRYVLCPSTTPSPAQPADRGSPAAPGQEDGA
The test can be described thus: Kinase enzymatic activity assay (33P-radiolabeled phosphate transfer), Axl. The following applies: recombinant human Axl (473-end), poly(4:1 glu:tyr) substrate, 30 minutes. The procedure, abridged:
as §1

SMILES strings stand for the structures.

On to `CN1CCC(CCOc2cc(OC3CCOCC3)c3c(Nc4nc(C(F)(F)F)cs4)ncnc3c2)CC1` [Example 2.45, N-(7-(2-(1-methylpiperidin-4-yl)ethoxy)-5-((tetrahydro-2H-pyran-4-yl)oxy)quinazolin-4-yl)-4-(trifluoromethyl)thiazol-2-amine], for which the IC50 (as a rule, the concentration that gives 50% inhibition) was over 10000 nM on human Tyro3, 1000 to 10000 nM on human Mer and under 500 nM at human Axl.

For the molecule `CN1CCC(COc2cc(OC3CCOCC3)c3c(Sc4nncs4)ncnc3c2)CC1` [Example 2.47, 2-((7-((1-methylpiperidin-4-yl)methoxy)-5-((tetrahydro-2H-pyran-4-yl)oxy)quinazolin-4-yl)thio)-1,3,4-thiadiazole], the IC50 at human Tyro3 was 1000 to 10000 nM; on human Mer, 1000 to 10000 nM; on human Axl, under 500 nM.

Take `Cc1nnc(Sc2ncnc3cc(OCC4CCN(C)CC4)cc(OC4CCOCC4)c23)s1` [Example 2.48, 2-methyl-5-((7-((1-methylpiperidin-4-yl)methoxy)-5-((tetrahydro-2H-pyran-4-yl)oxy)quinazolin-4-yl)thio)-1,3,4-thiadiazole]: the IC50 at human Tyro3 was over 10000 nM; at human Mer it was over 10000 nM; on human Axl it was 500 to 1000 nM.

With `Cc1nc(Sc2ncnc3cc(OCC4CCN(C)CC4)cc(OC4CCOCC4)c23)oc1C` [Example 2.49, 4,5-dimethyl-2-((7-((1-methylpiperidin-4-yl)methoxy)-5-((tetrahydro-2H-pyran-4-yl)oxy)quinazolin-4-yl)thio)oxazole], the IC50 was 1000 to 10000 nM at human Tyro3, over 10000 nM on human Mer and over 10000 nM on human Axl.

`CN1CCC(COc2cc(OC3CCOCC3)c3c(Sc4nc(C(F)(F)F)cs4)ncnc3c2)CC1` [Example 2.50, 2-((7-((1-methylpiperidin-4-yl)methoxy)-5-((tetrahydro-2H-pyran-4-yl)oxy)quinazolin-4-yl)thio)-4-(trifluoromethyl)thiazole]: the values for the IC50 at human Tyro3, on human Mer and at human Axl were over 10000 nM, 1000 to 10000 nM and 500 to 1000 nM, respectively.

For the molecule `Cc1csc(Sc2ncnc3cc(OCC4CCN(C)CC4)cc(OC4CCOCC4)c23)n1` [Example 2.51, 4-methyl-2-((7-((1-methylpiperidin-4-yl)methoxy)-5-((tetrahydro-2H-pyran-4-yl)oxy)quinazolin-4-yl)thio)thiazole], the IC50 on human Tyro3 was under 500 nM; on human Mer it was 1000 to 10000 nM; on human Axl, under 500 nM.

Regarding `CN1CCC(COc2cc(OC3CCOCC3)c3c(Sc4nccs4)ncnc3c2)CC1` [Example 2.52, 2-((7-((1-methylpiperidin-4-yl)methoxy)-5-((tetrahydro-2H-pyran-4-yl)oxy)quinazolin-4-yl)thio)thiazole], the IC50 on human Tyro3, on human Mer and on human Axl was under 500 nM each time.

As for `FC(F)(F)c1csc(Nc2ncnc3cc(OCCN4CCOCC4)cc(OC4CCOCC4)c23)n1` [Example 2.53, N-(7-(2-morpholinoethoxy)-5-((tetrahydro-2H-pyran-4-yl)oxy)quinazolin-4-yl)-4-(trifluoromethyl)thiazol-2-amine], the figures for the IC50 at human Tyro3, on human Mer and on human Axl were over 10000 nM, over 10000 nM and 1000 to 10000 nM, respectively.

For `CN(C)CCCOc1cc(OC2CCOCC2)c2c(Nc3nc(C(F)(F)F)cs3)ncnc2c1` [Example 2.54, N-(7-(3-(dimethylamino)propoxy)-5-((tetrahydro-2H-pyran-4-yl)oxy)quinazolin-4-yl)-4-(trifluoromethyl)thiazol-2-amine], the IC50 on human Tyro3 is over 10000 nM; on human Mer, 1000 to 10000 nM; on human Axl, under 500 nM.

`OC[C@@H](O)COc1cc(OC2CCOCC2)c2c(Nc3nc(C(F)(F)F)cs3)ncnc2c1` [Example 2.55, (R)-3-((5-((tetrahydro-2H-pyran-4-yl)oxy)-4-((4-(trifluoromethyl)thiazol-2-yl)amino)quinazolin-7-yl)oxy)propane-1,2-diol]: the IC50 was over 10000 nM at human Tyro3, over 10000 nM at human Mer and 500 to 1000 nM on human Axl.

`CN(C)CCOCCOc1cc(OC2CCOCC2)c2c(Nc3nc(C(F)(F)F)cs3)ncnc2c1` [Example 2.56, N-(7-(2-(2-(dimethylamino)ethoxy)ethoxy)-5-((tetrahydro-2H-pyran-4-yl)oxy)quinazolin-4-yl)-4-(trifluoromethyl)thiazol-2-amine]: the IC50 on human Tyro3 was over 10000 nM; at human Mer, 1000 to 10000 nM; at human Axl, under 500 nM.

Consider `CN(C)CCN1CCN(c2cc(OC3CCOCC3)c3c(Nc4nc(C(F)(F)F)cs4)ncnc3c2)CC1` [Example 2.57, N-(7-(4-(2-(dimethyl-amino)ethyl)piperazin-1-yl)-5-((tetrahydro-2H-pyran-4-yl)oxy)-quinazolin-4-yl)-4-(trifluoromethyl)-thiazol-2-amine], for which the results for the IC50 at human Tyro3, on human Mer and at human Axl were 1000 to 10000 nM, 1000 to 10000 nM and under 500 nM, respectively.

As for `CN1CCC(COc2cc(OC3CCOCC3)c3c(Nc4cc(C(F)(F)F)no4)ncnc3c2)CC1` [Example 2.58, N-(7-((1-methylpiperidin-4-yl)methoxy)-5-((tetrahydro-2H-pyran-4-yl)oxy)quinazolin-4-yl)-3-(trifluoromethyl)isoxazol-5-amine], the 50% inhibitory concentration (IC50) at human Tyro3 is over 10000 nM; at human Mer, 1000 to 10000 nM; on human Axl, 500 to 1000 nM.

For the molecule `CN(C)CCCN(C)c1cc(OC2CCOCC2)c2c(Nc3nc(C(F)(F)F)cs3)ncnc2c1` [Example 2.59, N^7-(3-(dimethylamino)-propyl)-N^7-methyl-5-((tetrahydro-2H-pyran-4-yl)oxy)-N^4-(4-(trifluoromethyl)thiazol-2-yl)quinazoline-4,7-diamine], the values for the IC50 on human Tyro3, at human Mer and on human Axl were over 10000 nM, over 10000 nM and 500 to 1000 nM, respectively.

`FC(F)(F)c1csc(Nc2ncnc3cc(OCCN4CCCCC4)cc(OC4CCOCC4)c23)n1` [Example 2.60, N-(7-(2-(piperidin-1-yl)ethoxy)-5-((tetrahydro-2H-pyran-4-yl)oxy)quinazolin-4-yl)-4-(trifluoromethyl)thiazol-2-amine]: the IC50 on human Tyro3 was over 10000 nM; on human Mer, under 500 nM; at human Axl, under 500 nM.

As to `CN1CCC(COc2cc(OC3CCOCC3)c3c(Nc4ccon4)ncnc3c2)CC1` [Example 2.61, N-(7-((1-methylpiperidin-4-yl)methoxy)-5-((tetrahydro-2H-pyran-4-yl)oxy)-quinazolin-4-yl)isoxazol-3-amine], the IC50 on human Tyro3 was 1000 to 10000 nM; on human Mer it was under 500 nM; at human Axl it was under 500 nM.

Take `CN(C)CCCOc1cc(OC2CCOCC2)c2c(Oc3ccc(F)cc3Cl)ncnc2c1` [Example 2.62, 3-((4-(2-chloro-4-fluorophenoxy)-5-((tetrahydro-2H-pyran-4-yl)oxy)quinazolin-7-yl)oxy)-N,N-dimethylpropan-1-amine]: the values for the IC50 at human Tyro3, at human Mer and at human Axl were under 500 nM, under 500 nM and 1000 to 10000 nM, respectively.

For the molecule `CN1CCN(CCCOc2cc(OC3CCOCC3)c3c(Oc4ccc(F)cc4Cl)ncnc3c2)CC1` [Example 2.63, 4-(2-chloro-4-fluorophenoxy)-7-(3-(4-methylpiperazin-1-yl)propoxy)-5-((tetrahydro-2H-pyran-4-yl)oxy)quinazoline], the IC50 on human Tyro3, on human Mer and on human Axl was under 500 nM in each case.

The values above are taken from patent US9771333B2, “Quinazoline derivatives as TAM family kinase inhibitors” (SIGNALCHEM LIFESCIENCES CORP., priority 2013, dated 2017).
